BigSolDB 2.1

O=S(=O)(c1ccccc1)N(F)S(=O)(=O)c1ccccc1
Conditions | solubility (mole fraction)
in 2-butanone, 273.35 K | 0.0332
in 2-butanone, 278.35 K | 0.0396
in 2-butanone, 283.35 K | 0.047
in 2-butanone, 288.35 K | 0.0546
in 2-butanone, 292.85 K | 0.0637
in 2-butanone, 297.95 K | 0.0734
in 2-butanone, 302.65 K | 0.0852
in 2-butanone, 307.35 K | 0.0978
in 2-butanone, 312.55 K | 0.111
in 2-butanone, 316.95 K | 0.128
in 2-butanone, 322.85 K | 0.146
in 2-pentanone, 273.35 K | 0.0316
in 2-pentanone, 278.35 K | 0.038
in 2-pentanone, 283.35 K | 0.0455
in 2-pentanone, 288.35 K | 0.0534
in 2-pentanone, 292.85 K | 0.0628
in 2-pentanone, 297.95 K | 0.073
in 2-pentanone, 302.65 K | 0.0853
in 2-pentanone, 307.35 K | 0.0988
in 2-pentanone, 312.55 K | 0.113
in 2-pentanone, 316.95 K | 0.131
in 2-pentanone, 322.85 K | 0.151
in acetone, 273.35 K | 0.0309
in acetone, 278.35 K | 0.0376
in acetone, 283.35 K | 0.0455
in acetone, 288.35 K | 0.0539
in acetone, 292.85 K | 0.0639
in acetone, 297.95 K | 0.0749
in acetone, 302.65 K | 0.0885
in acetone, 307.35 K | 0.104
in acetone, 312.55 K | 0.119
in acetone, 316.95 K | 0.14
in acetone, 322.85 K | 0.162
in acetonitrile, 273.35 K | 0.00951
in acetonitrile, 278.35 K | 0.0126
in acetonitrile, 283.35 K | 0.0165
in acetonitrile, 288.35 K | 0.021
in acetonitrile, 292.85 K | 0.0267
in acetonitrile, 297.95 K | 0.0334
in acetonitrile, 302.65 K | 0.0422
in acetonitrile, 307.35 K | 0.0528
in acetonitrile, 312.55 K | 0.0645
in acetonitrile, 316.95 K | 0.0804
in acetonitrile, 322.85 K | 0.0996
in ethanol, 273.35 K | 0.000599
in ethanol, 278.35 K | 0.000791
in ethanol, 283.35 K | 0.00103
in ethanol, 288.35 K | 0.00134
in ethanol, 292.85 K | 0.00168
in ethanol, 297.95 K | 0.00214
in ethanol, 302.65 K | 0.00268
in ethanol, 307.35 K | 0.00331
in ethanol, 312.55 K | 0.00417
in ethanol, 316.95 K | 0.00503
in ethanol, 322.85 K | 0.00641
in ethyl acetate, 273.35 K | 0.0243
in ethyl acetate, 278.35 K | 0.0295
in ethyl acetate, 283.35 K | 0.0353
in ethyl acetate, 288.35 K | 0.0415
in ethyl acetate, 292.85 K | 0.0489
in ethyl acetate, 297.95 K | 0.0568
in ethyl acetate, 302.65 K | 0.0668
in ethyl acetate, 307.35 K | 0.0775
in ethyl acetate, 312.55 K | 0.0885
in ethyl acetate, 316.95 K | 0.103
in ethyl acetate, 322.85 K | 0.119
in ethyl formate, 273.35 K | 0.0206
in ethyl formate, 278.35 K | 0.0254
in ethyl formate, 283.35 K | 0.0309
in ethyl formate, 288.35 K | 0.0369
in ethyl formate, 292.85 K | 0.0441
in ethyl formate, 297.95 K | 0.052
in ethyl formate, 302.65 K | 0.0619
in ethyl formate, 307.35 K | 0.0728
in ethyl formate, 312.55 K | 0.0843
in ethyl formate, 316.95 K | 0.0992
in ethyl formate, 322.85 K | 0.116
in isobutanol, 273.35 K | 0.000182
in isobutanol, 278.35 K | 0.000265
in isobutanol, 283.35 K | 0.000382
in isobutanol, 288.35 K | 0.000545
in isobutanol, 292.85 K | 0.000744
in isobutanol, 297.95 K | 0.00104
in isobutanol, 302.65 K | 0.00141
in isobutanol, 307.35 K | 0.00188
in isobutanol, 312.55 K | 0.00258
in isobutanol, 316.95 K | 0.00332
in isobutanol, 322.85 K | 0.00467
in isopentanol, 273.35 K | 0.000312
in isopentanol, 278.35 K | 0.000432
in isopentanol, 283.35 K | 0.000594
in isopentanol, 288.35 K | 0.000812
in isopentanol, 292.85 K | 0.00106
in isopentanol, 297.95 K | 0.00142
in isopentanol, 302.65 K | 0.00184
in isopentanol, 307.35 K | 0.00238
in isopentanol, 312.55 K | 0.00312
in isopentanol, 316.95 K | 0.00389
in isopentanol, 322.85 K | 0.00519
in isopropanol, 273.35 K | 0.000584
in isopropanol, 278.35 K | 0.000798
in isopropanol, 283.35 K | 0.000929
in isopropanol, 288.35 K | 0.00121
in isopropanol, 292.85 K | 0.0015
in isopropanol, 297.95 K | 0.00186
in isopropanol, 302.65 K | 0.00226
in isopropanol, 307.35 K | 0.00275
in isopropanol, 312.55 K | 0.00346
in isopropanol, 316.95 K | 0.0041
in isopropanol, 322.85 K | 0.00495
in methanol, 273.35 K | 0.000611
in methanol, 278.35 K | 0.000792
in methanol, 283.35 K | 0.00102
in methanol, 288.35 K | 0.0013
in methanol, 292.85 K | 0.0016
in methanol, 297.95 K | 0.00201
in methanol, 302.65 K | 0.00248
in methanol, 307.35 K | 0.00302
in methanol, 312.55 K | 0.00374
in methanol, 316.95 K | 0.00445
in methanol, 322.85 K | 0.0056
in methyl acetate, 273.35 K | 0.0285
in methyl acetate, 278.35 K | 0.0346
in methyl acetate, 283.35 K | 0.0417
in methyl acetate, 288.35 K | 0.0492
in methyl acetate, 292.85 K | 0.0583
in methyl acetate, 297.95 K | 0.0681
in methyl acetate, 302.65 K | 0.0803
in methyl acetate, 307.35 K | 0.0934
in methyl acetate, 312.55 K | 0.107
in methyl acetate, 316.95 K | 0.126
in methyl acetate, 322.85 K | 0.145
in n-butanol, 273.35 K | 0.00053
in n-butanol, 278.35 K | 0.000696
in n-butanol, 283.35 K | 0.000909
in n-butanol, 288.35 K | 0.00117
in n-butanol, 292.85 K | 0.00147
in n-butanol, 297.95 K | 0.00187
in n-butanol, 302.65 K | 0.00233
in n-butanol, 307.35 K | 0.00287
in n-butanol, 312.55 K | 0.0036
in n-butanol, 316.95 K | 0.00433
in n-butanol, 322.85 K | 0.00551
in n-pentanol, 273.35 K | 0.000465
in n-pentanol, 278.35 K | 0.000632
in n-pentanol, 283.35 K | 0.000843
in n-pentanol, 288.35 K | 0.00112
in n-pentanol, 292.85 K | 0.00142
in n-pentanol, 297.95 K | 0.00186
in n-pentanol, 302.65 K | 0.00236
in n-pentanol, 307.35 K | 0.00298
in n-pentanol, 312.55 K | 0.00382
in n-pentanol, 316.95 K | 0.0047
in n-pentanol, 322.85 K | 0.00613
in n-propanol, 273.35 K | 0.000452
in n-propanol, 278.35 K | 0.000616
in n-propanol, 283.35 K | 0.000832
in n-propanol, 288.35 K | 0.00111
in n-propanol, 292.85 K | 0.00142
in n-propanol, 297.95 K | 0.00187
in n-propanol, 302.65 K | 0.00239
in n-propanol, 307.35 K | 0.00304
in n-propanol, 312.55 K | 0.00392
in n-propanol, 316.95 K | 0.00485
in n-propanol, 322.85 K | 0.00633
in toluene, 273.35 K | 0.0112
in toluene, 278.35 K | 0.0145
in toluene, 283.35 K | 0.0185
in toluene, 288.35 K | 0.0228
in toluene, 292.85 K | 0.0284
in toluene, 297.95 K | 0.0346
in toluene, 302.65 K | 0.0429
in toluene, 307.35 K | 0.052
in toluene, 312.55 K | 0.0623
in toluene, 316.95 K | 0.076
in toluene, 322.85 K | 0.092
